In brackets after ≈: the same amount, converted by molar mass. Read-outs that look alike come from different tables or passages of the source. Each block holds one molecule with its values, some of them ahead of it.
Tests used:
uterus = conditions: intact adult rats, cited from earlier work
[1] = Aqueous solubility of fulvestrant, estimate from a water/solvent mixture; assay type: physicochemical; conditions: estimate from a water/solvent mixture solute
[2] = in vivo; cited from earlier work
[3] = Effect of benzyl benzoate on fulvestrant solubility in castor oil at 25°C (Table 3); assay type: physicochemical
[4] = system: uterotrophic action of oestradiol; conditions: monkeys; cited from earlier work
[5] = system: human breast cancer cells; conditions: human breast cancer cells in vitro; cited from earlier work
[6] = Solubility of fulvestrant in different solvents at 25° C. (Table 2); assay type: physicochemical
[7] = Solubility of fulvestrant in oil based formulations with and without alcohols (Table 4); assay type: physicochemical; conditions: 25 °C, oil or lipid
[8] = system: uterotrophic action of oestradiol; conditions: mice; cited from earlier work
[9] = system: uterotrophic action of oestradiol; conditions: rats; cited from earlier work
hypothalamic ER = conditions: in vivo; cited from earlier work
[10] = Studies using 14C labelled benzyl alcohol: dissipation from injection site and removal from body; assay type: in vivo

aqueous solubility [1]: around 10 ngml^−1
Fulvestrant Solubility ([3]; % w/v: ethanol (96%) 5, benzyl alcohol 5, benzyl benzoate 15, castor oil to 100): 36 mgml^−1
Fulvestrant Solubility ([3]; % w/v: ethanol (96%) 5, benzyl alcohol 5, no benzyl benzoate, castor oil to 100): 27 mgml^−1
Fulvestrant Solubility ([3]; % w/v: ethanol (96%) 10, benzyl alcohol 5, benzyl benzoate 15, castor oil to 100): 54 mgml^−1
Fulvestrant Solubility ([3]; % w/v: ethanol (96%) 10, benzyl alcohol 5, no benzyl benzoate, castor oil to 100): 46 mgml^−1
Fulvestrant Solubility ([3]; % w/v: ethanol (96%) 10, benzyl alcohol 10, benzyl benzoate 15, castor oil to 100): 65 mgml^−1
Fulvestrant Solubility ([3]; % w/v: ethanol (96%) 10, benzyl alcohol 10, no benzyl benzoate, castor oil to 100): 45 mgml^−1
Fulvestrant Solubility ([3]; % w/v: ethanol (96%) 15, benzyl alcohol 15, benzyl benzoate 15, castor oil to 100): 102 mgml^−1
Fulvestrant Solubility ([3]; % w/v: ethanol (96%) 15, benzyl alcohol 15, no benzyl benzoate, castor oil to 100): 76 mgml^−1
solubility ([6]; solvent Arachis oil, 25° C.): 0.45 mgml^−1
solubility ([6]; solvent Benzyl Alcohol, 25° C.): >200 mgml^−1
solubility ([6]; solvent Benzyl benzoate, 25° C.): 6.15 mgml^−1
solubility ([6]; solvent Castor oil, 25° C.): 20 mgml^−1
solubility ([6]; solvent Ethanol, 25° C.): >200 mgml^−1
solubility ([6]; solvent Ethyl oleate, 25° C.): 1.25 mgml^−1
solubility ([6]; solvent Isopropyl myristate, 25° C.): 0.80 mgml^−1
solubility ([6]; solvent Miglyol 810, 25° C.): 3.06 mgml^−1
solubility ([6]; solvent Miglyol 812, 25° C.): 2.72 mgml^−1
solubility ([6]; solvent Sesame oil, 25° C.): 0.58 mgml^−1
solubility ([6]; solvent Span 85 (surfactant), 25° C.): 3.79 mgml^−1
solubility ([6]; solvent Water, 25° C., read-out: SOLUBILITY): 0.001 mg/mL (≈ 0.00165 mM)
solubility [7]: 70.1 mg/mL (≈ 116 mM)
solubility ([7]; Fulvestrant Solubility, Vehicle minus alcohols, Sesame seed oil based, alcohols removed): 0.7 mg/mL (≈ 1.15 mM)
solubility ([7]; Fulvestrant Solubility, Vehicle minus alcohols, Sesame seed/Castor oil (1:1) based, alcohols removed, 25° C.): 4.4 mg/mL (≈ 7.25 mM)
solubility ([7]; Arachis oil based oil formulation, complete vehicle, Fulvestrant Solubility, Arachis oil based, ethanol [96%] (10%), benzyl alcohol (10%), benzyl benzoate (15%), oil to volume): 40.2 mg/mL (≈ 66.3 mM)
solubility ([7]; Arachis oil based oil formulation, vehicle minus alcohols, Fulvestrant Solubility, Arachis oil based, alcohols removed): < 0.2 mg/mL
solubility ([7]; Castor oil based oil formulation, complete vehicle, Fulvestrant Solubility, Castor oil based, ethanol [96%] (10%), benzyl alcohol (10%), benzyl benzoate (15%), oil to volume): 81.2 mg/mL (≈ 134 mM)
solubility ([7]; Castor oil based oil formulation, vehicle minus alcohols, Fulvestrant Solubility, Castor oil based, alcohols removed): 12.6 mg/mL (≈ 20.8 mM)
solubility ([7]; Miglyol 812-N based oil formulation, complete vehicle, Fulvestrant Solubility, Miglyol 812-N based, ethanol [96%] (10%), benzyl alcohol (10%), benzyl benzoate (15%), oil to volume): 86.8 mg/mL (≈ 143 mM)
solubility ([7]; Miglyol 812-N based oil formulation, vehicle minus alcohols, Fulvestrant Solubility, Miglyol 812-N based, alcohols removed): 1.7 mg/mL (≈ 2.8 mM)
solubility ([7]; Sesame seed oil based oil formulation, complete vehicle, Fulvestrant Solubility, Sesame seed oil based, ethanol [96%] (10%), benzyl alcohol (10%), benzyl benzoate (15%), oil to volume): 45.7 mg/mL (≈ 75.3 mM)
SMILES: C[C@]12CC[C@@H]3c4ccc(O)cc4C[C@@H](CCCCCCCCC[S+]([O-])CCCC(F)(F)C(F)(F)F)[C@H]3[C@@H]1CC[C@@H]2O (stereo partly drawn) [fulvestrant, 7α-[9-(4,4,5,5,5-Pentafluoropentylsulphinyl)nonyl]oestra-1,3-5(10)-triene-3,17β-diol]
effect on bone density and gonadotrophin secretion (uterus; at the dose achieving maximum regression of the uterus): does not adversely affect bone density or lead to increased gonadotrophin secretion
regression of the uterus (uterus): maximum regression of the uterus
crossing of the blood-brain barrier [2]: does not cross the blood-brain barrier
block of uterotrophic action of oestradiol [4]: blocks completely
block of growth stimulatory action of oestradiol [5]: completely blocks
potency and effectiveness compared with tamoxifen [5]: more potent and more effective than tamoxifen
block of uterotrophic action of oestradiol [8]: blocks completely
block of uterotrophic action of oestradiol [9]: blocks completely
block of hypothalamic ER (hypothalamic ER): does not block

dissipation from the injection site [10]: dissipates rapidly
time to removal from the body after administration [10]: ≤ 24 h
SMILES: OCc1ccccc1 [benzyl alcohol]

Reference: patent US20030125387A1 (priority 2000, published 2003)
